The record followed here is the METLIN SMRT retention time set (Domingo-Almenara et al. 2019).

Structures are written as SMILES.

The nature of the data set: gradient 5% acetonitrile 3 min, to 50% in 2 min, to 85% in 15 min, held 3 min, 100 µL/min. The conditions noted are these: column: Zorbax Extend-C18 2.1 x 50 mm; eluents: water / acetonitrile, 0.1% formic acid. In short, it runs like this: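 A Zorbax Extend-C18 column (2.1 × 50 mm, 1.8 μm) run at 100 μL/min with water and acetonitrile, both containing 0.1% formic acid, separated mixtures of ~100 pure standards. The HPLC was coupled to a quadrupole time-of-flight mass spectrometer operated in positive and negative ionization mode, with dead and dwell volumes of 40 μL and 900 μL. Each retention time was taken from a computationally picked adduct peak that was then manually inspected.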
Turning to `Cc1ccc2cc(CCC(=O)N3CCCN(c4ncccn4)CC3)c(=O)[nH]c2c1`, the RP-LC retention time was 676 s.
In the case of `CCc1ccccc1S(=O)(=O)N1C[C@@H]2C(=O)N(C(CC)c3cccs3)C(=O)[C@@H]2C1` (some centres not stated), the RP-LC retention time came out at 1070 s.
The same measure for `COc1ccccc1N1CCN(C(=O)C2CCCN(c3nccc4sc(C)cc34)C2)CC1` (configuration not stated): 711 s; for `CCCn1ccc2oc(C)c(C(=O)NCc3cccc(Br)c3)c2c1=O`: 1130 s.
`Cc1ccc(C(O)Cn2ccn3nc(-c4ccc(F)cc4)cc3c2=O)cc1` (configuration not stated) had an RP-LC retention time of 966 s.
With `COc1ccccc1NC(=O)N1CCCC1c1nc(-c2cccc(Cl)c2)no1` (configuration not stated) the figure was 941 s; with `CC(C)(C)c1[nH]cnc1/C=c1\[nH]c(=O)/c(=C/c2ccccc2)[nH]c1=O`, 806 s.
Molecule `CCn1c(=O)c(C)nc2cc(-c3noc(C4CC(=O)N(c5ccccc5)C4)n3)ccc21` (configuration not stated) showed an RP-LC retention time of 837 s.
For `Fc1ccc(C(c2nnc(-c3ccccc3)o2)N2CCN(c3ccccn3)CC2)c(Cl)c1` (configuration not stated), the RP-LC retention time was 978 s.
The same measure for `COc1ccc(S(=O)(=O)N2CCN(CCc3cn(C)c4ncccc34)CC2)cc1Cl`: 654 s.
`Cc1cccc(N2CCN(Cc3nc(-c4ccc(N5CCCC(C)C5)nc4)no3)CC2)c1C` (configuration not stated) registered an RP-LC retention time of 1260 s.
The same measure for `O=C(NCc1ccco1)c1cccc(Nc2c(-c3ccccc3)nc3cnccn23)c1`: 756 s.
`COc1ccc(C)cc1NC(=O)CN1C(=O)NC2(CCC(C)CC2)C1=O` (configuration not stated) displayed an RP-LC retention time of 853 s.
In the case of `CCCCNC(=O)C1CCN(c2nc3ccc(-c4cncnc4)nc3s2)CC1`, the RP-LC retention time came to 788 s.
`Nc1cc(C2CCN(C(=O)Cc3c(F)cccc3Cl)CC2)no1`: the RP-LC retention time was 723 s.
In turn, `Cn1nccc1-c1cccc(-c2noc(-c3ccc(F)c(F)c3)n2)c1` gave an RP-LC retention time of 1170 s.
The molecule `CSc1ccc(CNC(=O)C2CCCN(c3ncnc4c3oc3ccccc34)C2)cc1` (configuration not stated) gave an RP-LC retention time of 786 s.
With `CCCCN1CC(c2nc3ccccc3n2CC(=O)N(C)c2ccccc2)CC1=O` (configuration not stated), the RP-LC retention time amounted to 700 s.
As to `CS(=O)(=O)c1ccc(Cl)c(NC(=O)c2cccnc2)c1`, the RP-LC retention time was 590 s.
With `Cc1cc(=O)n2c(-c3ccc(NC(=O)Nc4ccc(F)c(F)c4)cc3)csc2n1`, the RP-LC retention time turned out to be 776 s.
As to `COc1ccc(S(=O)(=O)Nc2cc(-c3cn4ccccc4n3)ccc2C)cc1`, the RP-LC retention time was 797 s.
With `CCC(C)Sc1nnc(-c2cn(C)nc2OC)n1CCOC` (configuration not stated) the figure was 634 s; with `CCc1nc(-c2csc(S(=O)(=O)N3CCCC(C(=O)NCc4ccc(C)o4)C3)c2)no1` (configuration not stated), 946 s; with `CCC(=O)N1CCc2cc(-c3ccc(C(=O)N4CCN(c5ncccn5)CC4)cc3)ccc21`, 855 s.
Turning to `CCCn1c(C2CCN(C(=O)Nc3cccc(C)c3)C2)nc2cccnc21` (configuration not stated), the RP-LC retention time was found to be 713 s.
Molecule `Cc1cccc(NC(=O)CN2C(=O)C3CCCCN3c3ccc(S(=O)(=O)N(C)C)cc32)c1` (configuration not stated) displayed an RP-LC retention time of 607 s.
With `Cc1c(Cl)cccc1NC(=O)C1CCN(c2nc(C3CCC3)nc3csc(C)c23)CC1` the figure was 1000 s; with `CC(=O)N1c2ccc(S(=O)(=O)N(C)CC(=O)N3CCN(c4ccccn4)CC3)cc2CC1C` (configuration not stated), 590 s.
`COc1ccc2cc3c(=O)n(-c4ccc(C(=O)O)cc4)nc-3oc2c1` displayed an RP-LC retention time of 891 s.
With `CCOC(=O)N1CCC(Nc2c(C(=O)OC)c(=O)[nH]c3c(Cl)cccc23)CC1` the figure was 731 s; with `Cc1ccc(-n2ccc(=O)c(-c3nc(-c4ccc(OC(C)C)cc4)no3)n2)cc1`, 1060 s; with `CC1(C(=O)NC2CCCCCCC2)CN(S(C)(=O)=O)CC(=O)N1Cc1ccc(Cl)cc1` (configuration not stated), 993 s.
With `CC(CCc1ccccc1)NC(=O)C(=O)NC1CCCC1` (configuration not stated), the RP-LC retention time is 925 s.
The molecule `O=S(=O)(c1ccccc1C(F)(F)F)N1CCc2nc(-c3ccccc3)ncc2C1` registered an RP-LC retention time of 1110 s.
`CCCN1CCN(c2cc(C(=O)O)c3cc(NS(=O)(=O)c4cc(F)ccc4F)ccc3n2)CC1` showed an RP-LC retention time of 618 s.
Regarding `O=C(Cn1cccc1-c1nc(-c2ccc3c(c2)OCO3)no1)Nc1cc(F)cc(F)c1`, the RP-LC retention time turned out to be 1060 s.
The same measure for `CCCCC(=O)NC1(C(F)(F)F)C(=O)N(CCc2ccccc2)C(C)=C1C(C)=O` (configuration not stated): 980 s; for `COc1ccc(CNC(=O)Cn2c(=O)c3cc(C4CC4)nn3c3ncccc32)cc1`: 742 s.
As to `Cc1ccc(CNC(=O)C2CCN(S(=O)(=O)c3c(C)[nH]c(C)c3C(=O)N3CCCC3)CC2)cc1`, the RP-LC retention time was found to be 720 s.
For `Cc1ccc(Cn2nc3ccc(S(=O)(=O)N4CCCC4)cn3c2=O)cc1`, the RP-LC retention time worked out at 895 s.
As for `CN(Cc1nc2ccccc2n1Cc1ccc(F)cc1)C(=O)c1ccco1`, the RP-LC retention time was found to be 714 s.
The same measure for `Cn1ncc2c(N3CCSCC3)nc(C(=O)NCCc3ccc(Cl)cc3)nc21`: 913 s; for `Cc1nn(Cc2nc(-c3ccc(NC(=O)c4ccco4)cc3)oc2C)c(C)c1C`: 828 s; for `CC12C(=O)N(c3nccs3)C(=O)C1(C)C1CCC2O1` (configuration not stated): 741 s.
The same measure for `Cc1nn2c(CNC(=O)c3ccc(C(F)(F)F)cc3)c(C)nc2s1`: 692 s; for `O=C(NCc1ccco1)C1c2ccccc2C(=O)N(Cc2ccccc2)C12CCCC2` (configuration not stated): 943 s; for `Cc1nn(-c2ccc(C(=O)NC3CCCC3)cn2)c(C)c1C`: 907 s.
On to `Cc1ccc(C)c(C(=O)N2CCN(c3cc(C)nc(N4CCOCC4)n3)CC2)c1`, for which the RP-LC retention time amounted to 637 s.
With `Cc1nc2c(sc3nc(-c4ccccc4)ccc32)c(=O)n1CC(=O)Nc1ccccc1C(F)(F)F` the figure was 1070 s; with `COCCN1C(=O)c2cccn2CC1CNC(=O)c1ccc(Cc2c(C)n[nH]c2C)o1` (configuration not stated), 594 s; with `CCN(CC)C(=O)N[C@H]1C[C@@H]2c3cccc4[nH]cc(c34)C[C@H]2N(C)C1`, 679 s.
As to `Cc1cccc(CNC(=O)C2c3ccccc3CC(=O)N2C)c1` (configuration not stated), the RP-LC retention time was 748 s.
With `CCOc1ccc(C(=O)Nc2cnn(-c3ncncc3N3CCC(C)CC3)c2)cc1` the figure was 929 s; with `COc1ccc(OC)c(NC(=O)N(C)CCc2noc(-c3ccccc3)n2)c1`, 918 s.
`CC(=O)Nc1cccc(N2CC(C(=O)NCc3cccc(Br)c3)CC2=O)c1` (configuration not stated) returned an RP-LC retention time of 703 s.
In turn, `CC(C)COC(=O)c1ccc(NC(=O)C2C3CCC(C3)C2C(=O)O)cc1` (configuration not stated) showed an RP-LC retention time of 901 s.
With `CN1c2ccccc2C(=O)NC12CCN(C(=O)Nc1ccc(F)cc1)CC2` the figure was 729 s.
